Structures can show the parent of a compound that is named as a salt.

In general, IC50 refers to the concentration that inhibits the measured activity by half. A low value points to greater potency in that assay.

The target in the experiment is T1, SOS1 (Homo sapiens, UniProt Q07889).
T1 sequence (Q07889 1-1333): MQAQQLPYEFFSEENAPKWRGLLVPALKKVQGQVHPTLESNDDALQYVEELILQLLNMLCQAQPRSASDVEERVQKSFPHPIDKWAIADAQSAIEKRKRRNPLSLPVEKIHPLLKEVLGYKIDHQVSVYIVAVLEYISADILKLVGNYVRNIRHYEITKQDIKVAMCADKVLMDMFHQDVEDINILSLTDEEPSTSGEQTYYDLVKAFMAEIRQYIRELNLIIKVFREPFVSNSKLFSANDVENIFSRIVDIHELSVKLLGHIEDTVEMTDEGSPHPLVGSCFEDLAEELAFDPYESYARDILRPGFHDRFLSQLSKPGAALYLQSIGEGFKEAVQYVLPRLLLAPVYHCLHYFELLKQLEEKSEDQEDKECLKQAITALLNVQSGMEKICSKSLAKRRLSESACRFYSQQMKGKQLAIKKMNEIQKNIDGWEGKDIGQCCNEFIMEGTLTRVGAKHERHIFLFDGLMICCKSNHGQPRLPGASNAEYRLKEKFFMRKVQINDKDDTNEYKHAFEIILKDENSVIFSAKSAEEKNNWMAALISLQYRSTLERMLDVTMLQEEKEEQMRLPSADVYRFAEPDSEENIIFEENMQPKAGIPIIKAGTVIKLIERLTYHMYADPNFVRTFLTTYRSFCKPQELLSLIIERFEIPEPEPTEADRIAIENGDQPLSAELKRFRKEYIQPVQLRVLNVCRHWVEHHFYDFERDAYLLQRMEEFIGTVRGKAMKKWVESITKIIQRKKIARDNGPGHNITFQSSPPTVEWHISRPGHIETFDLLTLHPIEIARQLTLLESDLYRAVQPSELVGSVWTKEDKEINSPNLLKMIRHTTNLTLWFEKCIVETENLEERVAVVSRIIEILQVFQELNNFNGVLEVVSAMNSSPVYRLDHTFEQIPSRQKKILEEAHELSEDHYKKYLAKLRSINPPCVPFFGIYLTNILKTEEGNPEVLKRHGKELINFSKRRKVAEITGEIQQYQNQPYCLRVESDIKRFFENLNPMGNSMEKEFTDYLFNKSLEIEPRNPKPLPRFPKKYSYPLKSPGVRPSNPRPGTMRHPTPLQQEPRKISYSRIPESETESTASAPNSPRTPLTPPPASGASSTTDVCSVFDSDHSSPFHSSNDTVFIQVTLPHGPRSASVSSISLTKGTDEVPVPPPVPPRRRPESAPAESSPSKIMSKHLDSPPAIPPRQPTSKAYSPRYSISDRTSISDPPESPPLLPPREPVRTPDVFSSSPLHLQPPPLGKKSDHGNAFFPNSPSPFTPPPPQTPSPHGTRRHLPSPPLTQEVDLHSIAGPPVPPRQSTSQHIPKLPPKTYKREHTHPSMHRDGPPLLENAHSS
In words: biochemical.
Turning to `CCn1cc2c(N[C@H](C)c3cccc(C(F)F)c3F)nnc(N3CCN(C(C)C)CC3)c2cc1=O` [Example 118, (R)-4-((1-(3-(difluoromethyl)-2-fluorophenyl)ethyl)amino)-6-ethyl-1-(4-isopropylpiperazin-1-yl)pyrido[3,4-d]pyridazin-7(6H)-one], the IC50 was found to be 8.4 nM.
In the case of `C[C@@H](Nc1nnc(N2CC3CCC(C2)N3C)c2cc(=O)n(C3(C)CC3)cc12)c1cccc(C(F)F)c1F` [Example 193] it was 4.3 nM.
For `Cc1c(C(F)F)cccc1[C@@H](C)Nc1nnc(N2CCN(C(C)C)CC2)c2cc(=O)n(C3CC3)cc12` [Example 211, (R)-6-cyclopropyl-4-((1-(3-(difluoromethyl)-2-methylphenyl)ethyl)amino)-1-(4-isopropylpiperazin-1-yl)pyrido[3,4-d]pyridazin-7(6H)-one], the midpoint of inhibition, the IC50, lay at 5.2 nM.
The compound `C[C@@H](Nc1nnc(N2CCN(C)CC2)c2cc(=O)n(C3(C)CC3)cc12)c1cccc(S(F)(F)(F)(F)F)c1` [Example 214, (R)-6-(1-methylcyclopropyl)-1-(4-methylpiperazin-1-yl)-4-((1-(3-(pentafluoro-λ^6-sulfaneyl)phenyl)ethyl)amino)pyrido[3,4-d]pyridazin-7(6H)-one formate] returned an IC50 of 5 nM.
The compound `C[C@@H](Nc1nnc(N2CC3CC2CO3)c2cc(=O)n(C3(C)CC3)cc12)c1cccc(C(F)F)c1F` (stereo partly drawn) [Example 201, 1-(2-oxa-5-azabicyclo[2.2.1]heptan-5-yl)-4-(((R)-1-(3-(difluoromethyl)-2-fluorophenyl)ethyl)amino)-6-(1-methylcyclopropyl) pyrido[3,4-d]pyridazin-7(6H)-one] displayed an IC50 of 5.3 nM. The IC50 values of the last two compounds are within 1.5-fold of each other.
Then `C[C@@H](Nc1nnc(N2CCC3(CC2)CC3(F)F)c2cc(=O)n(C3(C)CC3)cc12)c1cccc(C(F)F)c1F` [Example 186, (R)-1-(1,1-difluoro-6-azaspiro[2.5]octan-6-yl)-4-((1-(3-(difluoromethyl)-2-fluorophenyl)ethyl)amino)-6-(1-methylcyclopropyl) pyrido[3,4-d]pyridazin-7(6H)-one], with 31.1 nM; and `Cc1c([C@@H](C)Nc2nnc(N3CC(F)(F)C3)c3cc(=O)n(C4CC4)cc23)cccc1C(F)(F)F` [Example 54, (R)-6-cyclopropyl-1-(3,3-difluoroazetidin-1-yl)-4-((1-(2-methyl-3-(trifluoromethyl)phenyl)ethyl)amino)pyr ido[3,4-d]pyridazin-7(6H)-one], with 50.3 nM.
For `Cc1c(C(F)F)cccc1[C@@H](C)Nc1nnc(N2CCN(C)CC2)c2cc(=O)n(C3CC3)cc12` [Example 210, (R)-6-cyclopropyl-4-((1-(3-(difluoromethyl)-2-methylphenyl)ethyl)amino)-1-(4-methylpiperazin-1-yl)pyrido[3,4-d]pyridazin-7(6H)-one], it took 2.7 nM to reach half-maximal inhibition (IC50).
Then `C[C@@H](Nc1nnc(N2CCN(C3CC3)CC2)c2cc(=O)n(C3CC(F)(F)C3)cc12)c1cccc(C(F)F)c1F` [Example 103, (R)-6-(3,3-difluorocyclobutyl)-4-((1-(3-(difluoromethyl)-2-fluorophenyl)ethyl)amino)-1-(4-cyclopropylpiperazin-1-yl)pyrido[3,4-d]pyridazin-7(6H)-one], with 5.9 nM; and `C[C@@H](Nc1nnc(N2CCC(F)(F)CC2)c2cc(=O)n(C3CC3)cc12)c1cccc(C(F)F)c1F` [Example 19, (R)-6-cyclopropyl-4-((1-(3-(difluoromethyl)-2-fluorophenyl)ethyl)amino)-1-(4,4-difluoropiperidin-1-yl)pyrido[3,4-d]pyridazin-7(6H)-one], with 27.2 nM.
In the case of `C[C@@H](Nc1nnc(N2CC[C@@H](CO)C2)c2cc(=O)n(C3(C)CC3)cc12)c1cccc(C(F)(F)F)c1` [Example 178, 1-((R)-3-(hydroxymethyl)pyrrolidin-1-yl)-6-(1-methylcyclopropyl)-4-(((R)-1-(3-(trifluoromethyl)phenyl)ethyl)amino)pyr ido[3,4-d]pyridazin-7(6H)-one formate] it was 6.3 nM; in that of `Cc1c(C#N)cccc1[C@@H](C)Nc1nnc(N2CCCC2)c2cc(=O)n(C3(C)CC3)cc12` [Example 45, (R)-2-methyl-3-(1-((6-(1-methylcyclopropyl)-7-oxo-1-(pyrrolidin-1-yl)-6,7-dihydropyrido[3,4-d]pyridazin-4-yl)amino)ethyl)benz onitrile], 6.2 nM; in that of `Cc1c(C#N)cccc1[C@@H](C)Nc1nnc(N(C)C)c2cc(=O)n(C3CC3)cc12` [Example 39, (R)-3-(1-((6-cyclopropyl-1-(dimethylamino)-7-oxo-6,7-dihydropyrido[3,4-d]pyridazin-4-yl)amino)ethyl)-2-methylbenzonitrile], 23.8 nM.
In the case of `CCN1CCN(c2nnc(N[C@H](C)c3cccc(C#N)c3C)c3cn(N4CC5CCCC5C4)c(=O)cc23)CC1` (stereo partly drawn) [Example 153, 3-((1R)-1-((6-(hexahydrocyclopenta[c]pyrrol-2(1H)-yl)-1-(4-ethylpiperazin-1-yl)-7-oxo-6,7-dihydropyrido[3,4-d]pyridazin-4-yl)amino)ethyl)-2-methylbenzonitrile] it was 4.6 nM; in that of `C[C@@H](Nc1nnc(-n2nccn2)c2cc(=O)n(C3CC3)cc12)c1cccc(C(F)F)c1F` [Example 32, (R)-6-cyclopropyl-4-((1-(3-(difluoromethyl)-2-fluorophenyl)ethyl)amino)-1-(2H-1,2,3-triazol-2-yl)pyrido[3,4-d]pyridazin-7(6H)-one], 25.5 nM; in that of `Cc1c([C@@H](C)Nc2nnc(N3CC4CC4C3)c3cc(=O)n(C4(C)CC4)cc23)cccc1C(F)(F)F` (stereo partly drawn) [Example 62, 1-(3-azabicyclo[3.1.0]hexan-3-yl)-4-(((R)-1-(2-methyl-3-(trifluoromethyl)phenyl)ethyl)amino)-6-(1-methylcyclopropyl) pyrido[3,4-d]pyridazin-7(6H)-one], 9.4 nM.
`C[C@@H](Nc1nnc(N2CCN(C)CC2)c2cc(=O)n(C)cc12)c1cccc(C(F)F)c1F` [Example 138, (R)-4-((1-(3-(difluoromethyl)-2-fluorophenyl)ethyl)amino)-6-methyl-1-(4-methylpiperazin-1-yl)pyrido[3,4-d]pyridazin-7(6H)-one formate] registered an IC50 of 10.7 nM.
In the case of `CC(=O)N1CCN(c2nnc(N[C@H](C)c3cccc(C(F)F)c3F)c3cn(C4(C)CC4)c(=O)cc23)CC1` [Example 79, (R)-1-(4-acetylpiperazin-1-yl)-4-((1-(3-(difluoromethyl)-2-fluorophenyl)ethyl)amino)-6-(1-methylcyclopropyl)pyrido[3,4-d]pyridazin-7(6H)-one] it was 12.7 nM; in that of `CCn1cc2c(N[C@H](C)c3cccc(C(F)F)c3F)nnc(N3CCN(C)CC3)c2cc1=O` [Example 116, (R)-4-((1-(3-(difluoromethyl)-2-fluorophenyl)ethyl)amino)-6-ethyl-1-(4-methylpiperazin-1-yl)pyrido[3,4-d]pyridazin-7(6H)-one], 6.6 nM; in that of `Cc1c(C#N)cccc1[C@@H](C)Nc1nnc(N2CCC(F)(F)CC2)c2cc(=O)n(C3(C)CC3)cc12` [Example 47, (R)-3-(1-((1-(4,4-difluoropiperidin-1-yl)-6-(1-methylcyclopropyl)-7-oxo-6,7-dihydropyrido[3,4-d]pyridazin-4-yl)amino)ethyl)-2-methylbenzonitrile], 66.2 nM.
Then `Cc1c([C@@H](C)Nc2nnc(N(C)C)c3cc(=O)n(C4CC4)cc23)cccc1C(F)(F)F` [Example 51, (R)-6-cyclopropyl-1-(dimethylamino)-4-((1-(2-methyl-3-(trifluoromethyl)phenyl)ethyl)amino)pyr ido[3,4-d]pyridazin-7(6H)-one], with 11.8 nM; and `Cc1c(C#N)cccc1[C@@H](C)Nc1nnc(N2CCN(CC3CC3)CC2)c2cc(=O)n(C3CC3)cc12` [Example 102, (R)-3-(1-((6-cyclopropyl-1-(4-(cyclopropylmethyl)piperazin-1-yl)-7-oxo-6,7-dihydropyrido[3,4-d]pyridazin-4-yl)amino)ethyl)-2-methylbenzonitrile], with 12.5 nM.

These data come from patent EP4722213A1, “NITROGEN-CONTAINING FUNCTIONAL GROUP-SUBSTITUTED PYRIDAZINOPYRIDONE DERIVATIVE AND USE THEREOF” (Sichuan Huiyu Pharmaceutical Co., Ltd., priority 2023, dated 2024).
